Entries after “also recorded” stand apart in the source; their conditions may differ.
Key:
[1] = system: LY8-RCHO cells; test: EdU cell proliferation assay; type: cell-based, human; conditions: 1 μM
Description: (§1) RCHO-resistant DLBCL cells were pretreated with duvelisib, abemaciclib, or AZD4547 at a concentration of 1 μM for 48 or 120 hours prior to EdU assay. For 120 hours of the study, the medium was replaced with a fresh medium containing 1 μM of inhibitor at 48 hours. EdU cell proliferation assay was performed by using a cell-light EdU Apollo643 in vitro flow cytometry kit (RiboBio Inc., Guangzhou, China) according to its instructions. Next, we assayed EdU staining positive cells on a Cytomics FC500 MPL flow cytometer (Beckman Coulter, Brea, Calif.).

[2] = system: NU-DUL-1-RCHO cells; test: EdU cell proliferation assay; type: cell-based, human; conditions: 1 μM
Description: as §1

[3] = system: LY8-RCHO-Luc cells; test: Transplantation model, bioluminescence tumor growth and survival; type: in vivo; conditions: SCID mice bearing LY8-RCHO-Luc cells; for tumor growth (total photon flux): dosing per Table 1
Excerpt: (§2) Construction of a transplantation model: we transduced LY8-RCHO cells and NU-DUL-1-RCHO cells with lentiviruses overexpressing the firefly luciferase gene to generate stable cells expressing firefly luciferase, referred to as LY8-RCHO-Luc cells and NU-DUL-1-RCHO-Luc cells, respectively. 8-week-old female SCID mice were purchased from SLAC (Shanghai laboratory animal center). The LY8-RCHO-Luc cells and NU-DUL-1-RCHO-Luc cells were resuspended in PBS prior to intraperitoneal injection of 1.5×10^7 cells per mouse. After intraperitoneal injection of the LY8-RCHO-Luc cells, mice were randomized into 6 groups (7 mice in every group) and given saline, R-CHOP, duvelisib, abemaciclib, R-CHOP+duvelisib, and R-CHOP+abemaciclib, respectively. Mice inoculated with the NU-DUL-1-RCHO-Luc cells were randomly divided into 6 groups (7 mice in every group), and were given saline, R-CHOP, duvelisib, AZD4547, R-CHOP+duvelisib, and R-CHOP+AZD4547, respectively. The drug dosing method based on one course of clinical use is shown in Table 1; the R-CHOP regimen was clinically used to treat DLBCL, while duvelisib, abemaciclib, and AZD4547 were tested in clinical trials (associated NCT numbers are NCT02576275, NCT01739309, and […], respectively). Tumor growth was monitored by bioluminescence at day 50 and day 90 after inoculation. For in vivo luminescence imaging, D-luciferin (Promega, Madison, Wis.) was intraperitoneally injected into mice (150 mg/kg). After 10 minutes, the mice were anesthetized by intraperitoneal injection of pentobarbital (50 mg/kg) and then their bioluminescence intensity was examined by using an In Vivo MS FX PRO system (Bruker Corporation, Billerica, Mass.). Luminescence images were captured with an exposure time of 30 seconds and the signal intensity of the tumor was measured by using Bruker MI software. The survival time of each mouse was recorded. Surviving mice were euthanized and dissected 120 days after inoculation and no intraperitoneal tumors were found. Tumor tissue was collected from moribund mice and fixed with 4% formalin. All animal experiments were performed in strict accordance with the experiment protocol approved by the animal ethics committee of Shanghai school of medicine of Fudan university.

[4] = system: NU-DUL-1-RCHO-Luc cells; test: as above; type: in vivo; conditions: SCID mice bearing NU-DUL-1-RCHO-Luc cells
Excerpt: as §2

[5] = system: SOX2 in tumor tissues grown from LY8-RCHO-Luc cells; test: SOX2 immunohistochemical staining of tumor tissues from the transplantation model; type: in vivo, SCID mice; conditions: tumors from LY8-RCHO-Luc cells; compared with saline control
Excerpt: (§3) Construction of a transplantation model: we transduced LY8-RCHO cells and NU-DUL-1-RCHO cells with lentiviruses overexpressing the firefly luciferase gene to generate stable cells expressing firefly luciferase, referred to as LY8-RCHO-Luc cells and NU-DUL-1-RCHO-Luc cells, respectively. 8-week-old female SCID mice were purchased from SLAC (Shanghai laboratory animal center). The LY8-RCHO-Luc cells and NU-DUL-1-RCHO-Luc cells were resuspended in PBS prior to intraperitoneal injection of 1.5×10^7 cells per mouse. After intraperitoneal injection of the LY8-RCHO-Luc cells, mice were randomized into 6 groups (7 mice in every group) and given saline, R-CHOP, duvelisib, abemaciclib, R-CHOP+duvelisib, and R-CHOP+abemaciclib, respectively. Mice inoculated with the NU-DUL-1-RCHO-Luc cells were randomly divided into 6 groups (7 mice in every group), and were given saline, R-CHOP, duvelisib, AZD4547, R-CHOP+duvelisib, and R-CHOP+AZD4547, respectively. […] Tumor growth was monitored by bioluminescence at day 50 and day 90 after inoculation. For in vivo luminescence imaging, D-luciferin (Promega, Madison, Wis.) was intraperitoneally injected into mice (150 mg/kg). […] Luminescence images were captured with an exposure time of 30 seconds and the signal intensity of the tumor was measured by using Bruker MI software. The survival time of each mouse was recorded. […]
(§4) Tumor tissues from patients or animal models were fixed with 4% formalin, embedded in paraffin and sectioned. […] Immunoreactivity was then detected by using a GTVision III immunohistochemical detection kit (GK500705; Gene Tech Inc., Shanghai, China) according to its instructions. Quantitative scoring of immunostaining for SOX2, p-AKT, CDK6, FGFR1 and FGFR2 was performed on three independent sections under the microscope, according to the formula: score=3 (strong positive)×percentage+2 (medium positive)×percentage+1 (weak positive)×percentage+0 (negative)×percentage.

[6] = system: SOX2 in tumor tissues grown from NU-DUL-1-RCHO-Luc cells; test: as above; type: in vivo, SCID mice; conditions: tumors from NU-DUL-1-RCHO-Luc cells; compared with saline control
Excerpt: as §3, §4

[7] = inhibitor combined with R-CHOP, experiment ended at day 120
[8] = regimen or inhibitor used alone, dosing per Table 1

Question: `C[C@H](Nc1ncnc2[nH]cnc12)c1cc2cccc(Cl)c2c(=O)n1-c1ccccc1` [duvelisib] was tested. Which “cell proliferation (EdU incorporation)” value ([1]; 48 hours) did it give?
Answer: strongly prevented proliferation of LY8-RCHO and NU-DUL-1-RCHO cells

Question: And the “cell proliferation (EdU incorporation)” value ([1]; 120 hours)?
Answer: significantly promoted proliferation of cells at 120 hours

Question: What about the “cell proliferation (EdU incorporation)” value ([2]; 48 hours) of the same compound?
Answer: strongly prevented proliferation of LY8-RCHO and NU-DUL-1-RCHO cells

Question: And the “cell proliferation (EdU incorporation)” value ([2]; 120 hours)?
Answer: significantly promoted proliferation of cells at 120 hours

Question: What about the “tumor growth (total photon flux)” value ([3]; inhibitor combined with R-CHOP) of the same compound?
Answer: significantly inhibited tumor growth; also recorded: completely inhibited tumor development

Question: And the survival [3, 7]?
Answer: prolonged the survival rate compared with R-CHOP or an inhibitor alone; also recorded: all treated mice survived until the end of the experiment at day 120

Question: And the “tumor growth (total photon flux)” value ([3]; regimen or inhibitor used alone, vs saline, day 50 and 90)?
Answer: neither duvelisib nor abemaciclib alone inhibited tumor growth or prolonged the survival rate; also recorded: accelerated tumor growth compared with normal saline, although this difference was not statistically significant

Question: What about the “tumor growth (total photon flux)” value ([4]; inhibitor combined with R-CHOP, dosing per Table 1) of the same compound?
Answer: completely inhibit tumor growth

Question: And the survival time [4, 7]?
Answer: prolong the survival time to the end of the experiment at day 120

Question: What about the survival time [4, 8] of the same compound?
Answer: had no efficacy on tumor growth and the survival time

Question: What about the “tumor growth (total photon flux)” value [4, 8] of the same compound?
Answer: had no efficacy on tumor growth and the survival time

Question: What about the “SOX2 expression level in tumor tissue (IHC)” value [5] of the same compound?
Answer: significantly reduced the expression levels of SOX2 compared with a saline control

Question: What about the “SOX2 expression level in tumor tissue (IHC)” value [6] of the same compound?
Answer: significantly reduced the expression levels of SOX2 compared with a saline control
